Source: patent publication US20060239945A1, “Cleansing composition” (Conopco Inc, d/b/a UNILEVER, priority 2004, published 2006)

Assays:
[1] = Product stability by visual assessment of color and homogeneity after storage; type: physicochemical; settings: for Color Stability of ER / Color Stability / Homogeneity: 2.5% ER; for Color Stability / Homogeneity: 3 months at ~25° C., visual
Procedure: Stability of product is evaluated after a storage period of 3 months at ˜25° C. by visual measurement to assess color and homogeneity of product.

[2] = system: human skin; test: Skin delivery of resorcinol from product applied to human volunteer forearms; type: in vivo; settings: for Skin Delivery of ER: 2.5% ER, pH 6.5, percentage of initial dose after rinse
Procedure: Delivery of resorcinol on human skin was assessed through direct application of product to human volunteer forearms. A known dose of the product was applied to the area, and the product was rubbed into the area. The area on the arm was rinsed with a fixed amount of water. The collected rinse liquor was analyzed for resorcinol, and the amount delivered to skin was calculated by subtracting from the dosage applied. This is expressed as a percentage of the initial dose.

[3] = system: skin colour of human panelists' face; test: Efficacy on skin-lightening, half-face cleanser use versus placebo cleanser; type: in vivo
Description: Thirty three human panelists are recruited who are required to use a known amount of the cleansing product on one half of their face. At the same time, the other half was rinsed with a placebo cleanser. Panelists were required to do this for eight weeks. The color of the skin is monitored at regular intervals by trained visual graders and instruments. A final assessment is made at eight weeks. The value for skin-lightening indicated is in comparison to the placebo effect.

[4] = liquid cleanser with 7% neutralised fatty acid (C18/C14/C12 mix), pH 9.2
[5] = liquid cleanser with 7% sodium lauryl sulphate, pH 6.5

## CCc1ccc(O)cc1O [4 ethyl resorcinol]
[1]; cleanser with SLES (3EO) 4.5%, coca amido propyl betaine 1.47%, decyl polyglucoside (HLB 13-15) 1.5%, pH 6.5
  Color Stability of ER: Good
[1]; cleanser with SLES (3EO) 6.8%, coca amido propyl betaine 2.2%, pH 6.5
  Color Stability of ER: Good
[1]; [4]
  Color Stability: Dark brown
  Homogeneity: Small precipitate
[1]; [5]
  Color Stability: Good
  Homogeneity: Good
[1]; pH of the formulation below 7.5
  stability of 4 ethyl resorcinol in the formulation: good
[2]; anionic and amphoteric surfactant, or in combination with a nonionic surfactant
  delivery of 4 ethyl resorcinol from the formulation on the skin: significant delivery
[2]; cleanser with SLES (3EO) 4.5%, coca amido propyl betaine 1.47%, decyl polyglucoside 1.5%
  Skin Delivery of ER: 12.4%
[2]; cleanser with SLES (3EO) 6.8%, coca amido propyl betaine 2.2%
  Skin Delivery of ER: 7.7%
[3]; cleanser with SLES (3EO) 6.8%, coca amido propyl betaine 2.2%, 2.5% ER, pH 6.5, eight weeks, in comparison to placebo effect
  Efficacy on skin-lightening: −0.7
[3]; through a cleansing system with anionic and amphoteric surfactant
  skin colour (lightening): significantly improves skin colour
